In US11304929B2, “Tosylacetate based compounds and derivatives thereof as PHGDH inhibitors” (priority 2017, dated 2022) one finds IC50 data, which are given here for 19 molecules.

Like-named read-outs stand apart in the source and are kept apart here.

One test concerns the target PHGDH (Homo sapiens (Human), UniProt O43175). Briefly: 3-Phosphoglycerate Dehydrogenase (PHGDH) Fluorescence Intensity Assay, run at two NAD/3-PG ratios: PHGDH_HIGH_NAD/3-PG (250 μM NAD/500 μM 3-PG) and PHGDH_500_NAD/3-PG (500 μM NAD/500 μM 3-PG). The test is classed as biochemical.
For another test, the system named is MDA-MB-468. Nature of the test: 13C3 Serine Assay MDA-MB-468 (13C3 serine levels by LC/MS/MS). The test is classed as cell-based. As to conditions: Homo sapiens.
The mark [1] stands for this setting: 250 μM NAD/500 μM 3-PG, read-out: IC50 (PHGDH_HIGH_NAD/3-PG).
The mark [2] stands for this setting: MDA-MB-468 cells, 13C3 serine levels by LC/MS/MS, read-out: IC50 (13CSERINE).
Where [3] appears, read: MDA-MB-468, read-out: IC50 (13CSERINE).
[4] abbreviates: 500 μM NAD/500 μM 3-PG, read-out: IC50 (PHGDH_500_NAD/3-PG).

Chain of PHGDH (O43175 2-533 limits assumed): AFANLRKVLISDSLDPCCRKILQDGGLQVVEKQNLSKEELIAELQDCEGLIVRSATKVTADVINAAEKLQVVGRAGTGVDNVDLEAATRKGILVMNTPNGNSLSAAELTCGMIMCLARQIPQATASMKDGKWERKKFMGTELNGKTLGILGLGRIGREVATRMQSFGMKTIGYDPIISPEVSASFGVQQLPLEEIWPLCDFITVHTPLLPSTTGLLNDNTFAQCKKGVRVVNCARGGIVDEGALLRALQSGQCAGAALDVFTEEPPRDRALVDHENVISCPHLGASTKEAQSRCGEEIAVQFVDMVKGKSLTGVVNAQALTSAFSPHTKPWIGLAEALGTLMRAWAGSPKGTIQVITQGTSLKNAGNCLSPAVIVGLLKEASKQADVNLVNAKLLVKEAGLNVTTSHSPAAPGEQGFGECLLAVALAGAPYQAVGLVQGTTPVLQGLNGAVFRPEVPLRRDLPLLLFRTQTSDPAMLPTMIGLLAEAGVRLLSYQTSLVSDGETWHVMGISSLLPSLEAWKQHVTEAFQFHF

For the molecule `COC(=O)CS(=O)(=O)c1ccc([C@@H](CO)NC(=O)c2cc(-c3ccccc3)nn2C)cc1` [Example 02-007, methyl 2-{4-[(1S)-2-hydroxy-1-[(1-methyl-3-phenyl-1H-pyrazol-5-yl)formamido]ethyl]benzenesulfonyl}acetate], the IC50 at PHGDH (setting [1]) was found to be 4340 nM; in the test with MDA-MB-468 (setting [2]), 167 nM.

Take `CC(C)OC(=O)CS(=O)(=O)c1ccc([C@@H](C)NC(=O)c2cc(-c3ccc(F)cc3)nn2C)cc1` [Example 02-008, propan-2-yl 2-{4-[(1R)-1-{[3-(4-fluorophenyl)-1-methyl-1H-pyrazol-5-yl]formamido}ethyl]benzenesulfonyl}acetate]: the IC50 on PHGDH (setting [1]) stood at 4840 nM; with MDA-MB-468 (setting [2]) it was 68.4 nM.

Take `COC(=O)CS(=O)(=O)c1ccc([C@@H](C)NC(=O)c2cc(-c3ccccc3)nn2C)cn1` [Example 02-010, methyl 2-({5-[(1R)-1-[(1-methyl-3-phenyl-1H-pyrazol-5-yl)formamido]ethyl]pyridin-2-yl}sulfonyl)acetate]: the figures for the IC50 on PHGDH (setting [1]) and in the test with MDA-MB-468 (setting [2]) were 3690 nM and 594 nM, respectively.

Turning to `CC(C)OC(=O)CS(=O)(=O)c1ccc([C@@H](C)NC(=O)c2cc(-c3ccccc3)nn2C)cc1` [Example 02-011, propan-2-yl 2-{4-[(1R)-1-[(1-methyl-3-phenyl-1H-pyrazol-5-yl)formamido]ethyl]benzenesulfonyl}acetate], the IC50 amounted to 6720 nM at PHGDH (setting [1]) and 135 nM in the test on MDA-MB-468 (setting [2]).

Turning to `Cc1cc(Cl)c2cc(C(=O)N[C@H](CO)c3ccc(S(=O)(=O)CC(=O)O)cc3)n(C)c2c1` [Example 03-002, 2-{4-[(1S)-1-[(4-chloro-1,6-dimethyl-1H-indol-2-yl)formamido]-2-hydroxyethyl]benzenesulfonyl}acetic acid], the IC50 at PHGDH (setting [1]) was found to be 6 nM; in the test with MDA-MB-468 (setting [3]) it was 1380 nM.

Take `Cc1cc2c(cc(C(=O)N[C@H](C)c3ccc(S(=O)(=O)CC(=O)O)cc3)n2C)c(Cl)c1Cl` [Example 03-005, 2-{4-[(1R)-1-[(4,5-dichloro-1,6-dimethyl-1H-indol-2-yl)formamido]ethyl]benzenesulfonyl}acetic acid]: the IC50 came to 4 nM at PHGDH (setting [1]), 9 nM on PHGDH (setting [4]) and 1070 nM with MDA-MB-468 (setting [3]).

As to `Cc1cc2c(cc(C(=O)N[C@H](CO)c3ccc(S(=O)(=O)CC(=O)O)cc3)n2C)c(Cl)c1Cl` [Example 03-006, 2-{4-[(1S)-1-[(4,5-dichloro-1,6-dimethyl-1H-indol-2-yl)formamido]-2-hydroxyethyl]benzenesulfonyl}acetic acid], the IC50 at PHGDH (setting [1]) turned out to be 3 nM; at PHGDH (setting [4]) it was 4 nM; with MDA-MB-468 (setting [3]) it was 203 nM.

As to `Cc1cc(Cl)c2cc(C(=O)N[C@H](C)c3ccc(S(=O)(=O)CC(=O)O)cc3)n(C)c2c1` [Example 03-009, 2-{4-[(1R)-1-[(4-chloro-1,6-dimethyl-1H-indol-2-yl)formamido]ethyl]benzenesulfonyl}acetic acid], the IC50 on PHGDH (setting [1]) turned out to be 8 nM; in the test with MDA-MB-468 (setting [3]) it was 3570 nM.

In the case of `Cc1nc2c(cc(C(=O)N[C@H](CO)c3ccc(S(=O)(=O)CC(=O)O)cc3)n2C)c(Cl)c1Cl` [Example 03-011, 2-{4-[(1S)-1-({4,5-dichloro-1,6-dimethyl-1H-pyrrolo[2,3-b]pyridin-2-yl}formamido)-2-hydroxyethyl]benzenesulfonyl}acetic acid], the IC50 at PHGDH (setting [1]) was 9 nM; in the test on MDA-MB-468 (setting [2]), 2000 nM.

Take `Cc1cc(Cl)c2cc(C(=O)N[C@H](C)c3ccc(S(=O)(=O)C(C)C(=O)OC(C)(C)C)cc3)n(C)c2c1` (stereo partly drawn) [Example 05-001, tert-butyl 2-{4-[(1R)-1-[(4-chloro-1,6-dimethyl-1H-indol-2-yl)formamido]ethyl]benzenesulfonyl}propanoate]: the IC50 at PHGDH (setting [1]) was 24400 nM; in the test on MDA-MB-468 (setting [2]) it was 891 nM.

For the molecule `CCOC(=O)C(C)(C)S(=O)(=O)c1ccc([C@@H](C)NC(=O)c2cc3c(Cl)cc(C)cc3n2C)cc1` [Example 05-003, ethyl 2-{4-[(1R)-1-[(4-chloro-1,6-dimethyl-1H-indol-2-yl)formamido]ethyl]benzenesulfonyl}-2-methylpropanoate], the IC50 on PHGDH (setting [1]) came to 15900 nM; in the test with MDA-MB-468 (setting [2]), 30.2 nM.

For the molecule `Cc1cc(Cl)c2cc(C(=O)N[C@H](C)c3ccc(S(=O)(=O)C(C)C(=O)OC(C)C)cc3)n(C)c2c1` (stereo partly drawn) [Example 05-004, propan-2-yl 2-{4-[(1R)-1-[(4-chloro-1,6-dimethyl-1H-indol-2-yl)formamido]ethyl]benzenesulfonyl}propanoate], the IC50 at PHGDH (setting [1]) was 11800 nM; in the test with MDA-MB-468 (setting [2]) it was 10.1 nM.

`COCCC(C(=O)OC)S(=O)(=O)c1ccc([C@@H](C)NC(=O)c2cc3c(Cl)cc(C)cc3n2C)cc1` (stereo partly drawn) [Example 05-005, methyl 2-{4-[(1R)-1-[(4-chloro-1,6-dimethyl-1H-indol-2-yl)formamido]ethyl]benzenesulfonyl}-4-methoxybutanoate]: the results for the IC50 at PHGDH (setting [1]) and in the test on MDA-MB-468 (setting [2]) were 652 nM and 831 nM, respectively.

As to `COC(=O)C(C)S(=O)(=O)c1ccc([C@@H](C)NC(=O)c2cc3c(Cl)cc(C)cc3n2C)cc1` (stereo partly drawn) [Example 05-009, methyl 2-{4-[(1R)-1-[(4-chloro-1,6-dimethyl-1H-indol-2-yl)formamido]ethyl]benzenesulfonyl}propanoate], the figures for the IC50 on PHGDH (setting [1]) and in the test on MDA-MB-468 (setting [2]) were 1680 nM and 1.6 nM, respectively.

Turning to `COC(=O)C1(S(=O)(=O)c2ccc([C@@H](C)NC(=O)c3cc4c(Cl)cc(C)cc4n3C)cc2)CCOCC1` [Example 05-010, methyl 4-{4-[(1R)-1-[(4-chloro-1,6-dimethyl-1H-indol-2-yl)formamido]ethyl]benzenesulfonyl}oxane-4-carboxylate], the figures for the IC50 on PHGDH (setting [1]) and in the test on MDA-MB-468 (setting [2]) were 11200 nM and 3.7 nM, respectively.

With `CCOC(=O)C(C)S(=O)(=O)c1ccc([C@@H](C)NC(=O)c2cc3c(Cl)cc(C)cc3n2C)cc1` (stereo partly drawn) [Example 05-011, ethyl 2-{4-[(1R)-1-[(4-chloro-1,6-dimethyl-1H-indol-2-yl)formamido]ethyl]benzenesulfonyl}propanoate], the IC50 at PHGDH (setting [1]) came to 5020 nM; in the test on MDA-MB-468 (setting [2]), 3.9 nM.

In the case of `Cc1cc(Cl)c2cc(C(=O)N[C@H](C)c3ccc(S(=O)(=O)C(C)(C)C(=O)OC(C)C)cc3)n(C)c2c1` [Example 05-012, propan-2-yl 2-{4-[(1R)-1-[(4-chloro-1,6-dimethyl-1H-indol-2-yl)formamido]ethyl]benzenesulfonyl}-2-methylpropanoate], the IC50 on PHGDH (setting [1]) was 25100 nM; in the test with MDA-MB-468 (setting [2]) it was 906 nM.

For `CCC(C(=O)OC)S(=O)(=O)c1ccc([C@@H](C)NC(=O)c2cc3c(Cl)cc(C)cc3n2C)cc1` (stereo partly drawn) [Example 05-013, methyl 2-{4-[(1R)-1-[(4-chloro-1,6-dimethyl-1H-indol-2-yl)formamido]ethyl]benzenesulfonyl}butanoate], the IC50 at PHGDH (setting [1]) came out at 5530 nM; with MDA-MB-468 (setting [2]) it was 166 nM.

For `COC(=O)C(C)(C)S(=O)(=O)c1ccc([C@@H](CO)NC(=O)c2cc3c(Cl)c(Cl)c(C)cc3n2C)cc1` [Example 05-017, methyl 2-{4-[(1S)-1-[(4,5-dichloro-1,6-dimethyl-1H-indol-2-yl)formamido]-2-hydroxyethyl]benzenesulfonyl}-2-methylpropanoate], the IC50 on PHGDH (setting [1]) was determined as 1230 nM; at PHGDH (setting [4]) it was 2960 nM; in the test with MDA-MB-468 (setting [2]), 0.3 nM.
